Experimental data reported in patent US4512992A, “Treatment with dialkoxy pyridopyrimidine compounds” (Burroughs Wellcome Co., priority 1981, dated 1985).

Key:
[1] = target: Histamine N-Methyltransferase (HMT) (Homo sapiens, UniProt P50135); test: Inhibition of histamine N-methyltransferase (HMT); type: biochemical
Protocol: Inhibition of Histamine N-Methyltransferase
The effect of the test compounds used in Example 2 against HMT was determined. An inhibition of less than 20% was considered acceptable.

[2] = target: T1, mammalian dihydrofolate reductase (DHFR) (Rattus norvegicus, UniProt Q920D2); test: Inhibition of mammalian dihydrofolate reductase (DHFR) partially purified from rat liver; type: biochemical
T1 construct: DHFR partially purified from rat liver; from tissue; host or cells: rat liver
T1 sequence (Q920D2 1-187): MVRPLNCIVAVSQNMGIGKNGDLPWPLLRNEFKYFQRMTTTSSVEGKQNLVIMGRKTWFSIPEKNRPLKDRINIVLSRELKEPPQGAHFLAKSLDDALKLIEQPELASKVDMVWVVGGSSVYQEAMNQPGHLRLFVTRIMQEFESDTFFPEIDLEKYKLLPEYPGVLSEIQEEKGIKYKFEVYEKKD
Protocol: Inhibition of Mammalian Dihydrofolate Reductase (DHFR) by […]-5-methyl-6-benzylpyrido(2,3-d)pyrimidines
The inhibitory effect of the test compounds against DHFR partially purified from rat liver was determined. An IC50 of 5×10^-8 M or less is considered significant potency, an IC50 of 1×10^-8 M or less being particularly significant potency.

Histamine N-Methyltransferase (HMT), sequence (P50135 whole entry, species assumed): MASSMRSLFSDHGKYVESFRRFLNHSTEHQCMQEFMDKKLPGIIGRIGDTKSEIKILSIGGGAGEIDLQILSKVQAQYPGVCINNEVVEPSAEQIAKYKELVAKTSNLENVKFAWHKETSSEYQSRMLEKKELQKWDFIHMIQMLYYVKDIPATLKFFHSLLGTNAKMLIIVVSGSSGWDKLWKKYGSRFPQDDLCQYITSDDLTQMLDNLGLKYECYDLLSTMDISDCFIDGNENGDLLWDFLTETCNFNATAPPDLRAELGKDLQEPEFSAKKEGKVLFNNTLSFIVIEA

inhibitor of mammalian DHFR (in words) [2]: very potent inhibitor of mammalian DHFR
SMILES: COc1ccc(Cc2cnc3nc(N)nc(N)c3c2C)cc1OC [2,4-Diamino-6-(3,4-dimethoxybenzyl)-5-methylpyrido[2,3-d]pyrimidine]
inhibitory activity against HMT (in words) [1]: acceptably low inhibitory activity against HMT
